According to US9212182B2, “Bicyclic sulfonamide compounds as sodium channel inhibitors” (AMGEN INC., priority 2013, dated 2015):

molecular target: Nav 1.7 (Homo sapiens (Human), UniProt Q15858); experiment: in-vitro Nav 1.7 PX (IC50); type: cell-based; settings: in-vitro Nav 1.7 PX data
Sequence (Q15858 whole entry): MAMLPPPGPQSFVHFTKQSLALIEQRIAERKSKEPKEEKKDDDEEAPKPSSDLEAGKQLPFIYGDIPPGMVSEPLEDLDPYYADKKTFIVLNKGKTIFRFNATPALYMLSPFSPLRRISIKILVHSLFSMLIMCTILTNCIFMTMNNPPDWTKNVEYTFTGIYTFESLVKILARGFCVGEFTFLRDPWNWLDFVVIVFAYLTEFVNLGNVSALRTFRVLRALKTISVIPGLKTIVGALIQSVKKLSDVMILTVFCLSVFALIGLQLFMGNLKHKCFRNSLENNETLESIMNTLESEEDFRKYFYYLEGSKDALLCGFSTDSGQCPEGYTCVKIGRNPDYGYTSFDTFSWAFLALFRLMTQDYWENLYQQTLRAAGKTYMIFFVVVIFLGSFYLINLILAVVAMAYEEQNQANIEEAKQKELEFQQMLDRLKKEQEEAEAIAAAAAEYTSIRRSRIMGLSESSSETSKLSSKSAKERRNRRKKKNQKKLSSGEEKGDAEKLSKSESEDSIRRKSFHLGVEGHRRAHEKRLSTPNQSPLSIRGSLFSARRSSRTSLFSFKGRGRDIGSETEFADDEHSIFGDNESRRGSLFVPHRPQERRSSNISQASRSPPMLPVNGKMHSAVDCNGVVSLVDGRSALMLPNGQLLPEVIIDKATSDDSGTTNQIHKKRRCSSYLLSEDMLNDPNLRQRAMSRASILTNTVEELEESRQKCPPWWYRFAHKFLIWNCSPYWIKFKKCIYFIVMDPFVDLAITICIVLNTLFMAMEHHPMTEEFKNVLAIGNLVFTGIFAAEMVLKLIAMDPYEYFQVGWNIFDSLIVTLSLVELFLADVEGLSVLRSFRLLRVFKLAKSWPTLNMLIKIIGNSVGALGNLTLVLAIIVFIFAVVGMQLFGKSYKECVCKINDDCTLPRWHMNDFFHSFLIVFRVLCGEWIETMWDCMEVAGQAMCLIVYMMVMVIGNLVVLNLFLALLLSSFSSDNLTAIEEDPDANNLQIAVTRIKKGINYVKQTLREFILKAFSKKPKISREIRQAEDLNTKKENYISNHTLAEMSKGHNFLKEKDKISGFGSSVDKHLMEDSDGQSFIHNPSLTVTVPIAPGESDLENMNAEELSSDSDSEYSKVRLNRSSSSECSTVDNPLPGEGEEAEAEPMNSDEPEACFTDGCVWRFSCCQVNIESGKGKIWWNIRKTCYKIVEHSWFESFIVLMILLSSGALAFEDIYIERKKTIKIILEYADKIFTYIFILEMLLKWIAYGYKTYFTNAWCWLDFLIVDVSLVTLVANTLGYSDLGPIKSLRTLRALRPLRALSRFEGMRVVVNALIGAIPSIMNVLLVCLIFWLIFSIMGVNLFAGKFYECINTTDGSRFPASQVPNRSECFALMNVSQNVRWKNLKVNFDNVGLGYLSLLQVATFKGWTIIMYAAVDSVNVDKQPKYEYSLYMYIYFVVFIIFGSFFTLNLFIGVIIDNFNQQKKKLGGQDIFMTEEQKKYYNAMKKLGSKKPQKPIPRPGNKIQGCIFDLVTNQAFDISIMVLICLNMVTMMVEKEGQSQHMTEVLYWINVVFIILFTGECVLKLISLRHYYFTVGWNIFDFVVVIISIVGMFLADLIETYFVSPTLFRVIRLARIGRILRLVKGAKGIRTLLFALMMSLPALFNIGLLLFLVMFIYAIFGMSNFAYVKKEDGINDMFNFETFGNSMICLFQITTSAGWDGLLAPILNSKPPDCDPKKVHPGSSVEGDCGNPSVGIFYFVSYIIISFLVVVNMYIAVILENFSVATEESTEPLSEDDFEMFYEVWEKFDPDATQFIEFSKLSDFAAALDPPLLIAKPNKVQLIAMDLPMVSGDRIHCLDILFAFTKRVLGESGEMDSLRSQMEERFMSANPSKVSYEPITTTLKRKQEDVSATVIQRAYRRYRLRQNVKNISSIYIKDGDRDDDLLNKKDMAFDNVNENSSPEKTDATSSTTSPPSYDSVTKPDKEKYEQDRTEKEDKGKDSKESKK

| IC50 | Structure (SMILES) |
| --- | --- |
| 12 nM | COc1nc(-c2cc(F)cc(Cl)c2)c(Cl)cc1-n1c(=O)ccc2cc(S(=O)(=O)Nc3ccon3)ccc21 [Example 1070, 1-(5-chloro-6-(3-chloro-5-fluorophenyl)-2-methoxy-3-pyridinyl)-N-3-isoxazolyl-2-oxo-1,2-dihydro-6-quinolinesulfonamide] |
| 348 nM | COc1nc(-c2cc(F)cc(Cl)c2)c(Cl)cc1-n1c(=O)ccc2cc(S(=O)(=O)Nc3ccon3)ccc21 [Example 1071, 1-(5-chloro-6-(3-chloro-5-fluorophenyl)-2-methoxy-3-pyridinyl)-N-3-isoxazolyl-2-oxo-1,2-dihydro-6-quinolinesulfonamide] |
| 21 nM | COc1nc(-c2cc(F)cc(F)c2)c(Cl)cc1-n1c(=O)ccc2cc(S(=O)(=O)Nc3ncccn3)ccc21 [Example 1080, 1-(5-chloro-6-(3,5-difluorophenyl)-2-methoxy-3-pyridinyl)-2-oxo-N-2-pyrimidinyl-1,2-dihydro-6-quinolinesulfonamide] |
| 4150 nM | COc1nc(-c2cc(F)cc(F)c2)c(Cl)cc1-n1c(=O)ccc2cc(S(=O)(=O)Nc3ncccn3)ccc21 [Example 1081, 1-(5-chloro-6-(3,5-difluorophenyl)-2-methoxy-3-pyridinyl)-2-oxo-N-2-pyrimidinyl-1,2-dihydro-6-quinolinesulfonamide] |
| 3440 nM | COc1nc(-c2ccc(Cl)c(C)c2)c(Cl)cc1-n1c(=O)ccc2cc(S(=O)(=O)Nc3ccon3)ccc21 [Example 1085, 1-(5-chloro-6-(4-chloro-3-methylphenyl)-2-methoxy-3-pyridinyl)-N-3-isoxazolyl-2-oxo-1,2-dihydro-6-quinolinesulfonamide] |

Second part, the compound before the results:

| Structure (SMILES) | IC50 |
| --- | --- |
| COc1cc(-c2ccc(Cl)c(C)c2)c(F)cc1-n1c(=O)ccc2cc(S(=O)(=O)Nc3cnsn3)ccc21 [Example 1072, 1-(4′-chloro-2-fluoro-5-methoxy-3′-methyl-4-biphenylyl)-2-oxo-N-1,2,5-thiadiazol-3-yl-1,2-dihydro-6-quinolinesulfonamide] | 18 nM |
| COc1cc(-c2ccc(Cl)c(C)c2)c(F)cc1-n1c(=O)ccc2cc(S(=O)(=O)Nc3ccsn3)ccc21 [Example 1073, 1-(4′-chloro-2-fluoro-5-methoxy-3′-methyl-4-biphenylyl)-N-3-isothiazolyl-2-oxo-1,2-dihydro-6-quinolinesulfonamide] | 23 nM |
| COc1cc(-c2ccc(Cl)c(C)c2)c(F)cc1-n1c(=O)ccc2cc(S(=O)(=O)Nc3nncs3)ccc21 [Example 1074, 1-(4′-chloro-2-fluoro-5-methoxy-3′-methyl-4-biphenylyl)-2-oxo-N-1,3,4-thiadiazol-2-yl-1,2-dihydro-6-quinolinesulfonamide] | 3 nM |
| COc1cc(CC(C)(C)C)c(F)cc1-n1c(=O)ccc2cc(S(=O)(=O)Nc3ccon3)ccc21 [Example 1076, 1-(4-(2,2-dimethylpropyl)-5-fluoro-2-methoxyphenyl)-N-3-isoxazolyl-2-oxo-1,2-dihydro-6-quinolinesulfonamide] | 64 nM |
| COc1cc(C2CCCCC2)c(F)cc1-n1c(=O)ccc2cc(S(=O)(=O)Nc3ccon3)ccc21 [Example 1077, 1-(4-cyclohexyl-5-fluoro-2-methoxyphenyl)-N-3-isoxazolyl-2-oxo-1,2-dihydro-6-quinolinesulfonamide] | 38 nM |
| COc1cc(CC2CCC2)c(F)cc1-n1c(=O)ccc2cc(S(=O)(=O)Nc3ccon3)ccc21 [Example 1078, 1-(4-(cyclobutylmethyl)-5-fluoro-2-methoxyphenyl)-N-3-isoxazolyl-2-oxo-1,2-dihydro-6-quinolinesulfonamide] | 69 nM |
| COc1cc(CC2C[C@@H]3CC[C@@H]2C3)c(F)cc1-n1c(=O)ccc2cc(S(=O)(=O)Nc3ccon3)ccc21 (stereo partly drawn) [Example 1082] | 9 nM |
| COc1cc([C@H]2CC[C@@H](C)CC2)c(F)cc1-n1c(=O)ccc2cc(S(=O)(=O)Nc3ccon3)ccc21 [Example 1083, 1-(5-fluoro-2-methoxy-4-(cis-4-methylcyclohexyl)phenyl)-N-3-isoxazolyl-2-oxo-1,2-dihydro-6-quinolinesulfonamide, 1-(5-fluoro-2-methoxy-4-(trans-4-methylcyclohexyl)phenyl)-N-3-isoxazolyl-2-oxo-1,2-dihydro-6-quinolinesulfonamide] | 10 nM |

same assay, conditions: in-vitro Nav 1.7 PX data (PatchXpress)

| IC50 | Structure (SMILES) |
| --- | --- |
| 54 nM | COc1cc(-c2ccccc2C(F)(F)F)ccc1-n1c(=O)ccc2cc(S(=O)(=O)Nc3ccon3)ccc21 [Example 1052, N-3-isoxazolyl-1-(3-methoxy-2′-(trifluoromethyl)-4-biphenylyl)-2-oxo-1,2-dihydro-6-quinolinesulfonamide] |
| 16 nM | COc1cc(-c2cc(C)ccc2C)ccc1-n1c(=O)ccc2cc(S(=O)(=O)Nc3ccon3)ccc21 [Example 1055, N-3-isoxazolyl-1-(3-methoxy-2′,5′-dimethyl-4-biphenylyl)-2-oxo-1,2-dihydro-6-quinolinesulfonamide] |
| 25 nM | COc1cc(-c2cccc(C)c2C)ccc1-n1c(=O)ccc2cc(S(=O)(=O)Nc3ccon3)ccc21 [Example 1056, N-3-isoxazolyl-1-(3-methoxy-2′,3′-dimethyl-4-biphenylyl)-2-oxo-1,2-dihydro-6-quinolinesulfonamide] |
| 11 nM | COc1cc(-c2cccc(Cl)c2F)ccc1-n1c(=O)ccc2cc(S(=O)(=O)Nc3ccon3)ccc21 [Example 1057, 1-(3′-chloro-2′-fluoro-3-methoxy-4-biphenylyl)-N-3-isoxazolyl-2-oxo-1,2-dihydro-6-quinolinesulfonamide] |
| 38 nM | COc1cc(-c2cccc(F)c2Cl)ccc1-n1c(=O)ccc2cc(S(=O)(=O)Nc3ccon3)ccc21 [Example 1058, 1-(2′-chloro-3′-fluoro-3-methoxy-4-biphenylyl)-N-3-isoxazolyl-2-oxo-1,2-dihydro-6-quinolinesulfonamide] |
| 32 nM | COc1cc(-c2cccc(C)c2Cl)ccc1-n1c(=O)ccc2cc(S(=O)(=O)Nc3ccon3)ccc21 [Example 1059, 1-(2′-chloro-3-methoxy-3′-methyl-4-biphenylyl)-N-3-isoxazolyl-2-oxo-1,2-dihydro-6-quinolinesulfonamide] |
| 28 nM | COc1cc(-c2ccc(C)cc2Cl)ccc1-n1c(=O)ccc2cc(S(=O)(=O)Nc3ccon3)ccc21 [Example 1060, 1-(2′-chloro-3-methoxy-4′-methyl-4-biphenylyl)-N-3-isoxazolyl-2-oxo-1,2-dihydro-6-quinolinesulfonamide] |
| 61 nM | COc1ccc(-c2ccc(-n3c(=O)ccc4cc(S(=O)(=O)Nc5ccon5)ccc43)c(OC)c2)c(Cl)c1 [Example 1061, 1-(2′-chloro-3,4′-dimethoxy-4-biphenylyl)-N-3-isoxazolyl-2-oxo-1,2-dihydro-6-quinolinesulfonamide] |
| 13 nM | COc1cc(-c2cc(F)c(F)cc2C)ccc1-n1c(=O)ccc2cc(S(=O)(=O)Nc3ccon3)ccc21 [Example 1064, 1-(4′,5′-difluoro-3-methoxy-2′-methyl-4-biphenylyl)-N-3-isoxazolyl-2-oxo-1,2-dihydro-6-quinolinesulfonamide] |
| 9 nM | COc1cc(-c2cc(C)c(F)cc2F)ccc1-n1c(=O)ccc2cc(S(=O)(=O)Nc3ccon3)ccc21 [Example 1065, 1-(2′,4′-difluoro-3-methoxy-5′-methyl-4-biphenylyl)-N-3-isoxazolyl-2-oxo-1,2-dihydro-6-quinolinesulfonamide] |
| 75 nM | COc1cc(-c2cc(F)cc(C(F)F)c2)ccc1-n1c(=O)ccc2cc(S(=O)(=O)Nc3ccon3)ccc21 [Example 1068, 1-(3′-(difluoromethyl)-5′-fluoro-3-methoxy-4-biphenylyl)-N-3-isoxazolyl-2-oxo-1,2-dihydro-6-quinolinesulfonamide] |
| 71 nM | COc1cc(-c2ccc(F)cc2)ccc1-n1c(=O)ccc2cc(S(=O)(=O)Nc3ccon3)ccc21 [Example 1069, 1-(4′-fluoro-3-methoxy-4-biphenylyl)-N-3-isoxazolyl-2-oxo-1,2-dihydro-6-quinolinesulfonamide] |

The remaining lines, values behind:

| Structure (SMILES) | IC50 |
| --- | --- |
| O=c1ccc2cc(S(=O)(=O)Nc3cnccn3)ccc2n1-c1ccc(-c2cc(F)cc(F)c2)cc1C1CC1 [Example 1044, 1-(3-cyclopropyl-3′,5′-difluoro-4-biphenylyl)-2-oxo-N-2-pyrazinyl-1,2-dihydro-6-quinolinesulfonamide] | 2950 nM |
| O=c1ccc2cc(S(=O)(=O)Nc3nncs3)ccc2n1-c1ccc(-c2cc(F)cc(F)c2)cc1C1CC1 [Example 1046, 1-(3-cyclopropyl-3′,5′-difluoro-4-biphenylyl)-2-oxo-N-1,3,4-thiadiazol-2-yl-1,2-dihydro-6-quinolinesulfonamide] | 112 nM |
| O=c1ccc2cc(S(=O)(=O)Nc3nncs3)ccc2n1-c1ccc(-c2cc(F)cc(F)c2)cc1C1CC1 [Example 1047, 1-(3-cyclopropyl-3′,5′-difluoro-4-biphenylyl)-2-oxo-N-1,3,4-thiadiazol-2-yl-1,2-dihydro-6-quinolinesulfonamide] | 6500 nM |
| O=c1ccc2cc(S(=O)(=O)Nc3ncns3)ccc2n1-c1ccc(-c2cc(F)cc(F)c2)cc1C1CC1 [Example 1048, 1-(3-cyclopropyl-3′,5′-difluoro-4-biphenylyl)-2-oxo-N-1,2,4-thiadiazol-5-yl-1,2-dihydro-6-quinolinesulfonamide] | 15 nM |
| O=c1ccc2cc(S(=O)(=O)Nc3ncns3)ccc2n1-c1ccc(-c2cc(F)cc(F)c2)cc1C1CC1 [Example 1049, 1-(3-cyclopropyl-3′,5′-difluoro-4-biphenylyl)-2-oxo-N-1,2,4-thiadiazol-5-yl-1,2-dihydro-6-quinolinesulfonamide] | 912 nM |
| COc1cc(Br)ccc1-n1c(=O)ccc2cc(S(=O)(=O)Nc3cccnn3)ccc21 [Example 1050, 1-(4-bromo-2-methoxyphenyl)-2-oxo-N-3-pyridazinyl-1,2-dihydro-6-quinolinesulfonamide] | 1430 nM |
| COc1cc(C)ccc1-c1ccc(-n2c(=O)ccc3cc(S(=O)(=O)Nc4ccon4)ccc32)c(OC)c1 [Example 1063, 1-(2′,3-dimethoxy-4′-methyl-4-biphenylyl)-N-3-isoxazolyl-2-oxo-1,2-dihydro-6-quinolinesulfonamide] | 98 nM |
| COc1cc(-c2cc(Cl)ccc2C)ccc1-n1c(=O)ccc2cc(S(=O)(=O)Nc3ncco3)ccc21 [Example 1067, 1-(5′-chloro-3-methoxy-2′-methyl-4-biphenylyl)-N-1,3-oxazol-2-yl-2-oxo-1,2-dihydro-6-quinolinesulfonamide] | 6 nM |
